{"source": "ChEMBL document CHEMBL5214910", "about": "“Rational Design of Dipicolylamine-Containing Carbazole Amphiphiles Combined with Zn2+ as Potent Broad-Spectrum Antibacterial Agents with a Membrane-Disruptive Mechanism” (J Med Chem, 2021)", "key": {"Acinetobacter baumannii [1]": {"tested_on": "Acinetobacter baumannii", "assay": "Antibacterial activity against Acinetobacter baumannii ATCC 17978 assessed as inhIbition of bacterial growth incubated for 24 hrs by Muller hinton broth based dilution assay", "format": "functional"}, "Staphylococcus aureus [2]": {"tested_on": "Staphylococcus aureus", "assay": "Antibacterial activity against Staphylococcus aureus ATCC 29213 assessed as inhibition of bacterial growth incubated for 24 hrs by Muller hinton broth based dilution assay", "format": "functional"}, "Staphylococcus aureus [3]": {"tested_on": "Staphylococcus aureus", "assay": "Antibacterial activity against Methicillin-resistant Staphylococcus aureus N315 assessed as inhibition of bacterial growth incubated for 24 hrs by Muller hinton broth based dilution assay", "format": "functional"}, "Pseudomonas aeruginosa [4]": {"tested_on": "Pseudomonas aeruginosa", "assay": "Antibacterial activity Pseudomonas aeruginosa ATCC 9027 assessed as inhibition of bacterial growth incubated for 24 hrs by Muller hinton broth based dilution assay", "format": "functional"}, "Staphylococcus aureus [5]": {"tested_on": "Staphylococcus aureus", "assay": "Antibacterial activity against Staphylococcus aureus ATCC 29213 assessed as inhibition of bacterial growth incubated for 24 hrs in the presence of 12.5 ug/mL Zn2+ by Muller hinton broth based dilution assay", "format": "functional"}, "Acinetobacter baumannii [6]": {"tested_on": "Acinetobacter baumannii", "assay": "Antibacterial activity against Acinetobacter baumannii R2889 assessed as inhIbition of bacterial growth incubated for 24 hrs in the presence of 12.5 ug/mL Zn2+ by Muller hinton broth based dilution assay", "format": "functional"}, "[7]": {"assay": "Hemolytic activity in rabbit RBC incubated for 1 hrs in the presence of 12.5 ug/mL Zn2+ by fluorescence based microplate reader assay", "format": "toxicity, cell-based, Oryctolagus cuniculus, Erythrocyte", "details": "rabbit red blood cells (erythrocytes)"}, "Escherichia coli [8]": {"tested_on": "Escherichia coli", "assay": "Antibacterial activity Escherichia coli ATCC 25922 assessed as inhibition of bacterial growth incubated for 24 hrs in the presence of 25 ug/mL Zn2+ by Muller hinton broth based dilution assay", "format": "functional"}, "Pseudomonas aeruginosa [9]": {"tested_on": "Pseudomonas aeruginosa", "assay": "Antibacterial activity Pseudomonas aeruginosa ATCC 9027 assessed as inhibition of bacterial growth incubated for 24 hrs in the presence of 3.125 ug/mL Zn2+ by Muller hinton broth based dilution assay", "format": "functional"}, "Pseudomonas aeruginosa [10]": {"tested_on": "Pseudomonas aeruginosa", "assay": "Antibacterial activity Pseudomonas aeruginosa ATCC 9027 assessed as inhibition of bacterial growth incubated for 24 hrs in the presence of […] ug/mL Zn2+ by Muller hinton broth based dilution assay", "format": "functional"}, "Pseudomonas aeruginosa [11]": {"tested_on": "Pseudomonas aeruginosa", "assay": "Antibacterial activity Pseudomonas aeruginosa ATCC 9027 assessed as inhibition of bacterial growth incubated for 24 hrs in the presence of 0.78 ug/mL Zn2+ by Muller hinton broth based dilution assay", "format": "functional"}, "Staphylococcus aureus [12]": {"tested_on": "Staphylococcus aureus", "assay": "Antibacterial activity against Methicillin-resistant Staphylococcus aureus NCTC10442 assessed as inhibition of bacterial growth incubated for 24 hrs in the presence of 50 ug/mL Zn2+ by Muller hinton broth based dilution assay", "format": "functional"}, "Staphylococcus aureus [13]": {"tested_on": "Staphylococcus aureus", "assay": "Antibacterial activity against Methicillin-resistant Staphylococcus aureus NCTC10442 assessed as inhibition of bacterial growth incubated for 24 hrs in the presence of 6.25 ug/mL Zn2+ by Muller hinton broth based dilution assay", "format": "functional"}, "Staphylococcus aureus [14]": {"tested_on": "Staphylococcus aureus", "assay": "Antibacterial activity against Methicillin-resistant Staphylococcus aureus NCTC10442 assessed as inhibition of bacterial growth incubated for 24 hrs in the presence of […] ug/mL Zn2+ by Muller hinton broth based dilution assay", "format": "functional"}, "Staphylococcus aureus [15]": {"tested_on": "Staphylococcus aureus", "assay": "Antibacterial activity against Staphylococcus aureus ATCC 29213 assessed as inhibition of bacterial growth incubated for 24 hrs in the presence of 3.125 ug/mL Zn2+ by Muller hinton broth based dilution assay", "format": "functional"}, "Staphylococcus aureus [16]": {"tested_on": "Staphylococcus aureus", "assay": "Antibacterial activity against Staphylococcus aureus ATCC 29213 assessed as inhibition of bacterial growth by measuring salt resistance incubated for 24 hrs in the presence of 12.5 ug/ml Zn2+ and 3220 ug/ml Na+ by Muller hinton broth based dilution assay", "format": "functional"}, "Staphylococcus aureus [17]": {"tested_on": "Staphylococcus aureus", "assay": "Antibacterial activity against Staphylococcus aureus ATCC 29213 assessed as inhibition of bacterial growth by measuring salt resistance incubated for 24 hrs in the presence of 12.5 ug/ml Zn2+ and 175.5 ug/ml K+ by Muller hinton broth based dilution assay", "format": "functional"}, "Staphylococcus aureus [18]": {"tested_on": "Staphylococcus aureus", "assay": "Antibacterial activity against Staphylococcus aureus ATCC 29213 assessed as inhibition of bacterial growth by measuring salt resistance incubated for 24 hrs in the presence of 12.5 ug/ml Zn2+ and 24.3 ug/ml Mg2+ by Muller hinton broth based dilution assay", "format": "functional"}, "Staphylococcus aureus [19]": {"tested_on": "Staphylococcus aureus", "assay": "Antibacterial activity against Methicillin-resistant Staphylococcus aureus N315 assessed as inhibition of bacterial growth by measuring salt resistance incubated for 24 hrs in the presence of 12.5 ug/ml Zn2+ and 3220 ug/ml Na+ by Muller hinton broth based dilution assay", "format": "functional"}, "Staphylococcus aureus [20]": {"tested_on": "Staphylococcus aureus", "assay": "Antibacterial activity against Methicillin-resistant Staphylococcus aureus N315 assessed as inhibition of bacterial growth by measuring salt resistance incubated for 24 hrs in the presence of 12.5 ug/ml Zn2+ and 175.5 ug/ml K+ by Muller hinton broth based dilution assay", "format": "functional"}, "Staphylococcus aureus [21]": {"tested_on": "Staphylococcus aureus", "assay": "Antibacterial activity against Methicillin-resistant Staphylococcus aureus NCTC10442 assessed as inhibition of bacterial growth by measuring salt resistance incubated for 24 hrs in the presence of 12.5 ug/ml Zn2+ and 175.5 ug/ml K+ by Muller hinton broth based dilution assay", "format": "functional"}, "Escherichia coli [22]": {"tested_on": "Escherichia coli", "assay": "Antibacterial activity against Escherichia coli ATCC 25922 assessed as inhibition of bacterial growth by measuring salt resistance incubated for 24 hrs in the presence of 12.5 ug/ml Zn2+ and 175.5 ug/ml K+ by Muller hinton broth based dilution assay", "format": "functional"}, "Staphylococcus aureus [23]": {"tested_on": "Staphylococcus aureus", "assay": "Antibacterial activity against Staphylococcus aureus ATCC 29213 assessed as log reduction in bacterial count at 8 times of MIC incubated for 30 mins in the presence of 12.5 ug/ml Zn2+ by Muller hinton agar based time kill assay", "format": "functional", "details": "0.5 h"}, "Staphylococcus aureus [24]": {"tested_on": "Staphylococcus aureus", "assay": "Antibacterial activity against Staphylococcus aureus ATCC 29213 in cyclophosphamide immunosuppressed C57BL/6 mouse model of bacterial keratitis assessed as log reduction in viable bacterial count in infected cornea at 0.5 % pre-infected with bacteria for 24 hrs followed by topical administration of compound four times a day for 3 days in the presence of 12.5 ug/ml of Zn2+", "format": "functional", "details": "route top, time 3 day"}, "Cell membrane [25]": {"tested_on": "Cell membrane", "assay": "Disruption of cell membrane integrity in Staphylococcus aureus ATCC 29213 assessed as increase in fluorescence intensity at 2 times to 8 times of MIC measured for 1 hrs in the presence of 12.5 ug/ml Zn2+ by SYTOX green dye based assay", "format": "subcellular", "details": "DDE = dose-dependent effect"}, "Cell membrane [26]": {"tested_on": "Cell membrane", "assay": "Induction of cell membrane […] in Staphylococcus aureus ATCC 29213 assessed as increase in fluorescence intensity at 2 times to 8 times of MIC measured for 1 hrs in the presence of 12.5 ug/ml Zn2+ by DiSC3 (5) dye based assay", "format": "subcellular"}, "Cell membrane [27]": {"tested_on": "Cell membrane", "assay": "Disruption of cell membrane integrity in Escherichia coli ATCC 25922 assessed as increase in red fluorescence at 8 times of MIC measured for 2 hrs in the presence of 12.5 ug/ml Zn2+ by PI and SYTO staining based assay", "format": "subcellular"}, "Cell membrane [28]": {"tested_on": "Cell membrane", "assay": "Induction of outer membrane permeabilization in Escherichia coli ATCC 25922 assessed as increase in fluorescence intensity at 2 times to 8 times MIC measured for 1 hrs in the presence of 12.5 ug/ml Zn2+ by NPN uptake assay", "format": "subcellular", "details": "DDE = dose-dependent effect"}, "Lipopolysaccharide (LPS)": {"tested_on": "Lipopolysaccharide (LPS)", "assay": "Displacement of BODIPY-TR-cadaverin from Pseudomonas aeruginosa Lipopolysaccharide at 16 times of MIC incubated for 30 mins by fluorescence based microplate reader analysis relative to control"}}, "note": "Activity calls are given as the source filed them. No cut-off for these calls is given here."}
{"smiles": "CC(C)=CCn1c2ccccc2c2c(OCC(O)CN(Cc3ccccn3)Cc3ccccn3)cccc21", "note": "(centres undefined)", "values": [{"measurement": "MIC", "setting": "Acinetobacter baumannii [1]", "value": 3.12, "unit": "µg/mL"}, {"measurement": "MIC", "setting": "Staphylococcus aureus [2]", "value": 3.12, "unit": "µg/mL"}, {"measurement": "MIC", "setting": "Staphylococcus aureus [3]", "value": 1.56, "unit": "µg/mL"}, {"measurement": "MIC", "setting": "Pseudomonas aeruginosa [4]", "value": "> 50", "unit": "µg/mL"}, {"measurement": "MIC", "setting": "Staphylococcus aureus [5]", "value": 1.56, "unit": "µg/mL"}, {"measurement": "MIC", "setting": "Acinetobacter baumannii [6]", "value": 1.56, "unit": "µg/mL"}, {"measurement": "HC50 at 1 h", "setting": "[7]", "value": "> 200", "unit": "µg/mL"}, {"measurement": "MIC", "setting": "Escherichia coli [8]", "value": 1.56, "unit": "µg/mL"}, {"measurement": "MIC", "setting": "Pseudomonas aeruginosa [9]", "value": 12.5, "unit": "µg/mL"}, {"measurement": "MIC", "setting": "Pseudomonas aeruginosa [10]", "value": 50, "unit": "µg/mL"}, {"measurement": "MIC", "setting": "Pseudomonas aeruginosa [11]", "value": "> 50", "unit": "µg/mL"}, {"measurement": "MIC", "setting": "Staphylococcus aureus [12]", "value": 0.78, "unit": "µg/mL"}, {"measurement": "MIC", "setting": "Staphylococcus aureus [13]", "value": 0.78, "unit": "µg/mL"}, {"measurement": "MIC", "setting": "Staphylococcus aureus [14]", "value": 1.56, "unit": "µg/mL"}, {"measurement": "MIC", "setting": "Staphylococcus aureus [15]", "value": 3.12, "unit": "µg/mL"}, {"measurement": "MIC", "setting": "Staphylococcus aureus [16]", "value": 1.56, "unit": "µg/mL"}, {"measurement": "MIC", "setting": "Staphylococcus aureus [17]", "value": 1.56, "unit": "µg/mL"}, {"measurement": "MIC", "setting": "Staphylococcus aureus [18]", "value": 1.56, "unit": "µg/mL"}, {"measurement": "MIC", "setting": "Staphylococcus aureus [19]", "value": 0.78, "unit": "µg/mL"}, {"measurement": "MIC", "setting": "Staphylococcus aureus [20]", "value": 0.78, "unit": "µg/mL"}, {"measurement": "MIC", "setting": "Staphylococcus aureus [21]", "value": 1.56, "unit": "µg/mL"}, {"measurement": "MIC", "setting": "Escherichia coli [22]", "value": 1.56, "unit": "µg/mL"}, {"measurement": "log(activity)", "setting": "Staphylococcus aureus [23]", "value": 4.22}, {"measurement": "log(activity)", "setting": "Staphylococcus aureus [24]", "value": 6.5}, {"measurement": "Activity", "setting": "Cell membrane [25]", "value": "Dde"}, {"measurement": "Activity", "setting": "Cell membrane [26]", "value": "Active"}, {"measurement": "Activity", "setting": "Cell membrane [27]", "value": "Active"}, {"measurement": "Activity", "setting": "Cell membrane [28]", "value": "Dde"}, {"measurement": "Activity", "setting": "Lipopolysaccharide (LPS)", "value": 2.47, "unit": "%"}]}
